For experiment [1], the system named is lyophilized O. anthropi IA cells. Kind of experiment: α-H-α-amino acid amide racemase activity of lyophilized O. anthropi IA cells. Format: biochemical, Ochrobactrum anthropi IA. Particulars: approximately 72 hours at 40° C., 10 times diluted reaction mixture. The protocol: O. anthropi IA cells were cultivated in Medium A containing DL-α-amino-ε-caprolactam (2 g/l) as sole nitrogen source. After incubation at 28° C. and 200 rpm for three days (OD620 nm=4.7), cells were harvested by centrifugation, washed in 20 mM HEPES-NaOH buffer of pH 7.7 and lyophilized.
The assay mixture consisted of 10 mM HEPES-NaOH buffer (pH 7.7) containing toluene (2,5 v/v %), pyridoxal-5-phosphate (20 μM), D- or L-leucine amide (2.5 m %) and in some cases EDTA (20 mM). Per assay 150 mg of lyophilized cells were used. Chemical blanks (with the assay mixture without the O. anthropi IA cells) were used as a negative control. All reaction mixtures (including the blanks) were incubated for approximately 72 hours at 40° C. before the reaction was stopped by the addition of 9 volumes of 1 M H3PO4. Finally, the reaction mixtures were analyzed by HPLC to determine the concentrations of D- and L-leucine amide and of D- and L-leucine. o-Phthaldehyde in combination with D-3-mercapto-2-methylpropionic acid was used in this HPLC method as a chiral reagent for the enantioseparation of these amino compounds (Duchateau, et al., J. Chromatogr. (1992) 623:237-245).
In a number of reactions EDTA was added to inhibit L- and/or D-specific amidase(s) present in the O. anthropi IA cells.
Without EDTA, amidases convert the substrate and/or product α-H-α-amino acid amides into α-H-α-amino acids thereby preventing direct detection of the other α-H-α-amino acid amide enantiomer as racemization product. […] Formation of L-leucine from D-leucine amide could not be detected in the chemical blank.

Experiment [2] concerns α-H-α-amino acid amide racemase from Arthrobacter nicotianae NCIMB 41126. Kind of experiment: Substrate specificity, CFE from E. coli DH10B/pAn(1)PLV36D06 (Example 9). Format: biochemical. Particulars: relative to the activity towards D-leucine amide; 75 mM substrate, pH 8.0, 37° C. Here is the method: Preparation of the CFE of E. coli DH10B/pAn(1)PLV36D06 was performed as described in Example 7 for E. coli TOP10/pKEC_AZAR—3
Before applying the CFE from E. coli DH10B/pAn(1)PLV36D06 in the reactions with different enantiomerically pure α-H-α-amino acid amides to determine the substrate specificity of the A. nicotianae α-H-α-amino acid amide racemase, the E. coli amidases/aminopeptidases in this CFE were inhibited by a pre-treatment with an inhibitor cocktail. One tablet of Complete Mini Protease Inhibitor Cocktail (Roche Applied Science, Mannheim, Germany) was dissolved in 9 ml of the CFE followed by an incubation of 1 hour at room temperature. Next, reaction mixtures of 10 ml each (including the CFE) were prepared containing 50 mM HEPES-NaOH, pH 8.0, 20 μM pyridoxal-5-phosphate, 0.4 mg/ml BSA, 1 mM dithiothreitol and 75 mM of one of the amino acid amides tested. Reactions were started by the addition of 1 ml of the pre-treated CFE of E. coli DH10B/pAn(1)PLV36D06 or E. coli TOP10/pBAD/Myc-HisC (blank) and were incubated at 37° C. At regular time intervals samples of 1 ml were taken and transferred to vials containing 1 ml of 1M H3PO4 to stop the reaction. After sufficient dilution of the samples in 0.4 M borate buffer pH 9.4, the mixtures obtained were analyzed using HPLC to determine the exact concentrations of the two amino acid and two amino acid amide enantiomers according to the method of Example 7.

Experiment [3] concerns E. coli clones with plasmid encoded A. nicotianae NCIMB 41126 α-H-α-amino acid amide racemase activity. Kind of experiment: Confirmation of potential positive clones of the A. nicotianae NCIMB 41126 gene library. In kind it is cell-based, Arthrobacter nicotianae NCIMB 41126. Particulars: 70 mM substrate, 10 μM pyridoxal-5-phosphate, 20 h at 30° C. The protocol:
Of all 32 potential positive clones identified in the screening, material from the masterplates was used to inoculate 3 ml of liquid screening medium containing 50 mg/l kanamycin. After growth for 2 days at 30° C., cells were collected by centrifuging 2 ml of these cell cultures. Then the cell pellets were washed four times in 25 mM Tris-HCl buffer, pH 7.5. Subsequently, the cell pellets were resuspended in 100 μl substrate solution containing 70 mM of D-phenylalanine amide, or D-leucine amide, or D-valine amide in 50 mM Tris-HCl, pH 7.5 and 1 mM MnCl2. After incubation for 20 h at 30° C., the reactions were stopped by the addition of 100 μl of 0.15 M HCl, after which the reaction mixtures were analyzed by the HPLC method described in Example 1.
Confirmation of both potential positive clones was done according to the protocol given in Example 3, with the exception that all 3 substrate solutions used contained 10 μM of pyridoxal-5-phosphate.

Where only a bound is given, the exact number is not on record here.

For the compound `CC(C)C[C@@H](N)C(N)=O` [D-leucine amide], in experiment [1] (with EDTA (20 mM)), the D-leucine came out at 0.007 m %, the D-leucine amide amounted to 0.24 m %, the L-leucine is given as 0.008 m % and the L-leucine amide came out at 0.032 m %. In addition, in experiment [1] (without EDTA), the D-leucine was determined as 0.015 m %, the D-leucine amide is on record as 0.22 m %, the L-leucine is on record as 0.044 m % and the L-leucine amide is on record as less than 0.001 m %. Besides, the Rel. initial activity in experiment [2] stood at 100%. For the same compound, in experiment [3], the “conversion of D-amide into L-acid” value is listed as “significantly converted”.
